Counter-ions that a name gives are not always drawn. Like-named read-outs stand apart in the source and are kept apart here.
What was measured:
HIV-activated pDC [1] = type: cell-based, human
HIV-activated pDC [2] = conditions: ELISA, AMD3100 20 μM pre-treatment, then CB, HIV overnight
[3] = AMD3100 20 μM pre-incubation, histamine or CB 10 μM, HIV-X4 overnight, normalized to RPL13A
[4] = AMD3100 alone, HIV-stimulated pDC
[5] = AMD-3100 20 μM, then CB 10 μM, HIV overnight, normalized to RPL13A

Question: With `c1cc(CN2CCCNCCNCCCNCC2)ccc1CN1CCCNCCNCCCNCC1` [AMD3100, plerixafor] as the compound, how does the “IFN-a mRNA expression inhibited by histamine or CB in HIV-activated pDC (FIG. 1)” value (HIV-activated pDC [1]; [3]) read?
Answer: could restore

Question: And the “IFN-β mRNA expression inhibited by histamine or CB in HIV-activated pDC (FIG. 1)” value (HIV-activated pDC [1]; [3])?
Answer: could restore

Question: What about the “TRAIL mRNA expression inhibited by histamine or CB in HIV-activated pDC (FIG. 1)” value (HIV-activated pDC [1]; [3]) of the same compound?
Answer: could restore

Question: And the “biological activities of histamine and CB on HIV activated-pDC” value (HIV-activated pDC [1]; AMD3100 (20 μM) 1 hour, then histamine or CB (10 μM) 1 hour, HIV-1 overnight)?
Answer: drastically abolished

Question: What about the “TRAIL expression by HIV-activated pDC” value (HIV-activated pDC [1]; [4]) of the same compound?
Answer: did not block

Question: What about the “type I IFN expression by HIV-activated pDC” value (HIV-activated pDC [1]; [4]) of the same compound?
Answer: did not block

Question: What about the “IFN-stimulated gene 56 (ISG56) mRNA expression in HIV-activated pDC (restoration, FIG. 3A)” value (HIV-activated pDC [1]; [5]) of the same compound?
Answer: confirmed

Question: And the “IFN-γ mRNA expression in HIV-activated pDC (restoration, FIGS. 3A-3C)” value (HIV-activated pDC [1]; [5])?
Answer: confirmed

Question: What about the “IL-6 mRNA expression in HIV-activated pDC (restoration, FIG. 3C)” value (HIV-activated pDC [1]; [5]) of the same compound?
Answer: confirmed

Question: And the “IFN-a production inhibited by histamine or CB in HIV-activated pDC (FIG. 2)” value (HIV-activated pDC [2])?
Answer: could restore

Question: How did the “production of IFN-I by HIV-stimulated pDC” value (HIV-activated pDC [1]; amine-type compounds, 10 μM) turn out when `NC(=NCc1ccc(Cl)cc1)SCCCc1cnc[nH]1` [CB, clobenpropit dihydrobromide] was run?
Answer: inhibit

Question: For `Cl.Cl.NCCc1c[nH]cn1` [histamine, Histamine dihydrochloride], which “production of IFN-I by HIV-stimulated pDC” value (HIV-activated pDC [1]) is on record?
Answer: inhibit

From patent publication US11433048B2, “CXCR4 receptor-binding compounds useful for increasing interferon level” (CENTRE NATIONAL de la RECHERCHE SCIENTIFIQUE, priority 2016, dated 2022)
